{"source": "patent US20210255193A1", "about": "“LYSINE REACTIVE PROBES AND USES THEREOF” (The Scripps Research Institute, priority 2017, published 2021)", "key": {"[1]": {"target": "T1, KPNA2 Importin subunit alpha-2 (Homo sapiens, UniProt P52292)", "T1 construct": "isoTOP-ABPP experiments performed in cell lysates (in vitro); endogenous in cells; host or cells: soluble proteome of human cancer cell lines (MDA-MB-231, Ramos, Jurkat)", "experiment": "competitive isoTOP-ABPP", "assay_type": "binding", "method_in_brief": "(§1)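 Lysate + fragment (50 μM activated ester / 100 μM guanidinylating agent) or DMSO → 0.1 mM STP-alkyne, 1 h, RT → CuAAC to TEV tags (compound light, DMSO heavy) → LC-MS. R = heavy/light MS1 area; liganded lysine if R≥4.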"}, "[2]": {"target": "T2, PFKL 6-phosphofructokinase, liver type (Homo sapiens, UniProt P17858)", "T2 construct": "isoTOP-ABPP experiments performed in cell lysates (in vitro); endogenous in cells; host or cells: soluble proteome of human cancer cell lines (MDA-MB-231; Ramos and Jurkat also prepared)", "T2 sequence (P17858 1-780)": "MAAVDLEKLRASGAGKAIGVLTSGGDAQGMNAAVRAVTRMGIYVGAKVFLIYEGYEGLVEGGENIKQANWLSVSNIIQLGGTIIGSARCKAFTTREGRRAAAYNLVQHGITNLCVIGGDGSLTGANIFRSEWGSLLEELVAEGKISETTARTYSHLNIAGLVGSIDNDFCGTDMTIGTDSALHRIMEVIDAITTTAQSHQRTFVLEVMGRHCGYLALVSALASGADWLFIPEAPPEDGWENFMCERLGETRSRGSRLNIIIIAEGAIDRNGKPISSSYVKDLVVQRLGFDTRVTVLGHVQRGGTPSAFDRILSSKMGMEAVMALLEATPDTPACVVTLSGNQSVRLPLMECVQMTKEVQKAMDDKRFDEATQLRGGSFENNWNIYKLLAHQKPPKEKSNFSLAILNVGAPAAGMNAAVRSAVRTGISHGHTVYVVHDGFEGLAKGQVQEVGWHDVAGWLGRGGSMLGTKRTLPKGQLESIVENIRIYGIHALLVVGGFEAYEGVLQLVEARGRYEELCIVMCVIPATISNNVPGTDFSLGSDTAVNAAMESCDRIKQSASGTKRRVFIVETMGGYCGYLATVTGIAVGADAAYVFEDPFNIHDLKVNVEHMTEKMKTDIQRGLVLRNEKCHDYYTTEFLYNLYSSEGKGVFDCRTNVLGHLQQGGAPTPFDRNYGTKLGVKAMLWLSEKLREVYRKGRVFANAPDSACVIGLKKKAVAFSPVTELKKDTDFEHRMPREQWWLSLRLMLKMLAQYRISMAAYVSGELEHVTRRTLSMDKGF", "experiment": "competitive isoTOP-ABPP", "assay_type": "binding", "conditions": "for isoTOP-ABPP ratio, lysine P17858_K677: possible other lysine P17858_K681; for isoTOP-ABPP ratio, lysine P17858_K715: possible other lysine P17858_K714", "method_in_brief": "as §1"}}}
{"smiles": "CC(=O)Oc1ccc([N+](=O)[O-])cc1[N+](=O)[O-]", "note": "[fragment 43, 2,4-Dinitrophenyl acetate]", "values": [{"measurement": "isoTOP-ABPP ratio (R) at liganded lysine P52292_K459", "setting": "[1]; 50 uM, in vitro, sol, 231", "value": 2.6}, {"measurement": "isoTOP-ABPP ratio (R) at liganded lysine P17858_K677", "setting": "[2]; 50 uM, in vitro, sol, 231", "value": 3.2}, {"measurement": "isoTOP-ABPP ratio (R) at liganded lysine P17858_K715", "setting": "[2]; 50 uM, in vitro, sol, 231", "value": 1.3}]}
{"smiles": "N#Cc1ccc(C(=O)Oc2ccc([N+](=O)[O-])cc2[N+](=O)[O-])cc1", "note": "[fragment 44, 2,4-Dinitrophenyl 4-cyanobenzoate]", "values": [{"measurement": "isoTOP-ABPP ratio, lysine P52292_K459", "setting": "[1]; 50 uM_231_sol_in vitro", "value": 1.6}, {"measurement": "isoTOP-ABPP ratio, lysine P17858_K315", "setting": "[2]; 50 uM_231_sol_in vitro", "value": 0.8}, {"measurement": "isoTOP-ABPP ratio, lysine P17858_K677", "setting": "[2]; 50 uM_231_sol_in vitro", "value": 1.7}, {"measurement": "isoTOP-ABPP ratio, lysine P17858_K715", "setting": "[2]; 50 uM_231_sol_in vitro", "value": 1.8}]}
{"smiles": "O=C(CCc1ccc2c(c1)OCO2)Oc1ccc([N+](=O)[O-])cc1[N+](=O)[O-]", "note": "[fragment 45, 2,4-Dinitrophenyl 3-(benzo[d][1,3]dioxol-5-yl)propanoate]", "values": [{"measurement": "isoTOP-ABPP ratio, lysine P52292_K459", "setting": "[1]; 50 uM_231_sol_in vitro", "value": 1.7}, {"measurement": "isoTOP-ABPP ratio, lysine P17858_K315", "setting": "[2]; 50 uM_231_sol_in vitro", "value": 1.8}, {"measurement": "isoTOP-ABPP ratio, lysine P17858_K677", "setting": "[2]; 50 uM_231_sol_in vitro", "value": 2.9}, {"measurement": "isoTOP-ABPP ratio, lysine P17858_K715", "setting": "[2]; 50 uM_231_sol_in vitro", "value": 10.9}]}
{"smiles": "O=C(ON1C(=O)CCC1=O)c1cc(C(F)(F)F)cc(C(F)(F)F)c1", "note": "[fragment 46, 3,5-Bis(trifluoromethyl)benzoic acid NHS ester]", "values": [{"measurement": "isoTOP-ABPP ratio, lysine P52292_K459", "setting": "[1]; 50 uM_231_sol_in vitro", "value": 1.4}, {"measurement": "isoTOP-ABPP ratio, lysine P17858_K315", "setting": "[2]; 50 uM_231_sol_in vitro", "value": 0.6}, {"measurement": "isoTOP-ABPP ratio, lysine P17858_K677", "setting": "[2]; 50 uM_231_sol_in vitro", "value": 1.4}, {"measurement": "isoTOP-ABPP ratio, lysine P17858_K715", "setting": "[2]; 50 uM_231_sol_in vitro", "value": 0.8}]}
{"smiles": "O=C(Oc1c(F)c(F)c(C(F)(F)F)c(F)c1F)c1cc(C(F)(F)F)cc(C(F)(F)F)c1", "note": "[fragment 47, 2,3,5,6-Tetrafluoro-4-(trifluoromethyl)phenyl 3,5-bis(trifluoromethyl)benzoate]", "values": [{"measurement": "isoTOP-ABPP ratio, lysine P52292_K459", "setting": "[1]; 50 uM_231_sol_in vitro", "value": 1.2}, {"measurement": "isoTOP-ABPP ratio, lysine P17858_K315", "setting": "[2]; 50 uM_231_sol_in vitro", "value": 1.0}, {"measurement": "isoTOP-ABPP ratio, lysine P17858_K677", "setting": "[2]; 50 uM_231_sol_in vitro", "value": 1.0}, {"measurement": "isoTOP-ABPP ratio, lysine P17858_K715", "setting": "[2]; 50 uM_231_sol_in vitro", "value": 1.0}]}
{"smiles": "O=C(Oc1c(F)c(F)cc(F)c1F)c1cc(C(F)(F)F)cc(C(F)(F)F)c1", "note": "[fragment 48, 2,3,5,6-Tetrafluorophenyl 3,5-bis(trifluoromethyl)benzoate]", "values": [{"measurement": "isoTOP-ABPP ratio, lysine P52292_K459", "setting": "[1]; 50 uM_231_sol_in vitro", "value": 1.1}, {"measurement": "isoTOP-ABPP ratio, lysine P17858_K315", "setting": "[2]; 50 uM_231_sol_in vitro", "value": 0.7}, {"measurement": "isoTOP-ABPP ratio, lysine P17858_K677", "setting": "[2]; 50 uM_231_sol_in vitro", "value": 0.9}, {"measurement": "isoTOP-ABPP ratio, lysine P17858_K715", "setting": "[2]; 50 uM_231_sol_in vitro", "value": 1.0}]}
{"smiles": "COC(=O)NC(=NC(=O)OCC1c2ccccc2-c2ccccc21)n1cccn1", "note": "[fragment 49, N-Methoxycarbonyl-N′-9-fluorenylmethoxycarbonyl-pyrazole-1-carboxamidine]", "values": [{"measurement": "isoTOP-ABPP ratio, lysine P52292_K459", "setting": "[1]; 100 uM_231_sol_in vitro", "value": 1.1}, {"measurement": "isoTOP-ABPP ratio, lysine P17858_K715", "setting": "[2]; 100 uM_231_sol_in vitro", "value": 1.8}]}
{"smiles": "CC(C)(C)OC(=O)N=C(NC(=O)OC(C)(C)C)n1cccn1", "note": "[fragment 50, reference compound]", "values": [{"measurement": "isoTOP-ABPP ratio, lysine P52292_K459", "setting": "[1]; 100 uM_231_sol_in vitro", "value": 1.6}, {"measurement": "isoTOP-ABPP ratio, lysine P17858_K677", "setting": "[2]; 100 uM_231_sol_in vitro", "value": 20.0}, {"measurement": "isoTOP-ABPP ratio, lysine P17858_K715", "setting": "[2]; 100 uM_231_sol_in vitro", "value": 2.9}]}
{"smiles": "NC(=O)c1cc(C(F)(F)F)cc(C(F)(F)F)c1", "note": "[fragment 51, reference compound]", "values": [{"measurement": "isoTOP-ABPP ratio, lysine P52292_K459", "setting": "[1]; 50 uM_231_sol_in vitro", "value": 0.9}, {"measurement": "isoTOP-ABPP ratio, lysine P17858_K677", "setting": "[2]; 50 uM_231_sol_in vitro", "value": 0.9}, {"measurement": "isoTOP-ABPP ratio, lysine P17858_K715", "setting": "[2]; 50 uM_231_sol_in vitro", "value": 0.9}]}
